Experiments:
[1] = The drug is tested on Z-025 corresponding to rabbit gut metagenome with ENA study accession number: PRJEB37062 and ENA sample accession number: ERS12561824 for biotransformation under anaerobic condition. The drug concentrations were measured over 9 timepoints collected between 0 and 24 hours of incubation by liquid-chromatography-coupled mass spectrometry (LC–MS); conditions: 2 µM
[2] = human gut metagenome, 24 h, 2 µM
[3] = The drug is tested on Z-016 corresponding to mouse gut metagenome with ENA study accession number: PRJEB37062 and ENA sample accession number: ERS12561815 for biotransformation under anaerobic condition. The drug concentrations were measured over 9 timepoints collected between 0 and 24 hours of incubation by liquid-chromatography-coupled mass spectrometry (LC–MS); conditions: 2 µM
[4] = The drug is tested on WLS-170 corresponding to human gut metagenome with ENA study accession number: PRJEB37062 and ENA sample accession number: ERS12561762 for biotransformation under anaerobic condition. The drug concentrations were measured over 9 timepoints collected between 0 and 24 hours of incubation by liquid-chromatography-coupled mass spectrometry (LC–MS); conditions: 2 µM
[5] = human gut metagenome, 24 h, 2 µM; remark: listed apart in the source
[6] = The drug is tested on Z-029 corresponding to rat gut metagenome with ENA study accession number: PRJEB37062 and ENA sample accession number: ERS12561828 for biotransformation under anaerobic condition. The drug concentrations were measured over 9 timepoints collected between 0 and 24 hours of incubation by liquid-chromatography-coupled mass spectrometry (LC–MS); conditions: 2 µM
[7] = The drug is tested on Z-014 corresponding to rat gut metagenome with ENA study accession number: PRJEB37062 and ENA sample accession number: ERS12561814 for biotransformation under anaerobic condition. The drug concentrations were measured over 9 timepoints collected between 0 and 24 hours of incubation by liquid-chromatography-coupled mass spectrometry (LC–MS); conditions: 2 µM
[8] = The drug is tested on Z-004 corresponding to metagenome with ENA study accession number: PRJEB37062 and ENA sample accession number: ERS12561804 for biotransformation under anaerobic condition. The drug concentrations were measured over 9 timepoints collected between 0 and 24 hours of incubation by liquid-chromatography-coupled mass spectrometry (LC–MS); conditions: 2 µM
[9] = human gut metagenome, 24 h, 2 µM; remark: listed apart in the source
Also: call rule not given here.

SMILES | Bacterial Biotransformation [1] | Bacterial Biotransformation [2] | Bacterial Biotransformation [3] | Bacterial Biotransformation [4] | Bacterial Biotransformation [5] | Bacterial Biotransformation [6] | Bacterial Biotransformation [7] | Bacterial Biotransformation [8] | Bacterial Biotransformation [9]
COc1cc(C(=O)NCc2ccc(OCCN(C)C)cc2)cc(OC)c1OC [TRIMETHOBENZAMIDE] | Compound NOT metabolized | Compound NOT metabolized | Compound NOT metabolized | Compound NOT metabolized | Compound NOT metabolized | Compound NOT metabolized | Compound NOT metabolized | Compound NOT metabolized | Compound NOT metabolized
CN[C@H]1CC[C@@H](c2ccc(Cl)c(Cl)c2)c2ccccc21 [SERTRALINE] | Compound metabolized | Compound NOT metabolized | Compound NOT metabolized | Compound metabolized | Compound NOT metabolized | Compound NOT metabolized | Compound NOT metabolized | Compound metabolized | Compound metabolized
Clc1cccc(Cl)c1N=C1NCCN1 [CLONIDINE] | Compound NOT metabolized | Compound NOT metabolized | Compound NOT metabolized | Compound metabolized | Compound NOT metabolized | Compound NOT metabolized | Compound NOT metabolized | Compound metabolized | Compound metabolized
CCOc1ccccc1OCCN[C@H](C)Cc1ccc(OC)c(S(N)(=O)=O)c1.Cl [TAMSULOSIN HYDROCHLORIDE] | Compound NOT metabolized | Compound NOT metabolized | Compound NOT metabolized | Compound metabolized | Compound NOT metabolized | Compound NOT metabolized | Compound NOT metabolized | Compound NOT metabolized | Compound NOT metabolized
O=C(NC(Cc1cc(=O)[nH]c2ccccc12)C(=O)O)c1ccc(Cl)cc1 (stereo unspecified) [REBAMIPIDE] | Compound NOT metabolized | Compound NOT metabolized | Compound NOT metabolized | Compound NOT metabolized | Compound NOT metabolized | Compound NOT metabolized | Compound NOT metabolized | Compound NOT metabolized | Compound NOT metabolized
COc1ccccc1OCCNCC(O)COc1cccc2[nH]c3ccccc3c12 (stereo unspecified) [CARVEDILOL] | Compound metabolized | Compound NOT metabolized | Compound NOT metabolized | Compound metabolized | Compound NOT metabolized | Compound NOT metabolized | Compound NOT metabolized | Compound NOT metabolized | Compound metabolized
Nc1nc(NC2CC2)c2ncn([C@H]3C=C[C@@H](CO)C3)c2n1.Nc1nc(NC2CC2)c2ncn([C@H]3C=C[C@@H](CO)C3)c2n1.O=S(=O)(O)O [ABACAVIR SULFATE] | Compound NOT metabolized | Compound metabolized | Compound NOT metabolized | Compound metabolized | Compound NOT metabolized | Compound NOT metabolized | Compound NOT metabolized | Compound metabolized | Compound metabolized
OCCN(CCO)c1nc(N2CCCCC2)c2nc(N(CCO)CCO)nc(N3CCCCC3)c2n1 [DIPYRIDAMOLE] | Compound NOT metabolized | Compound metabolized | Compound NOT metabolized | Compound metabolized | Compound metabolized | Compound NOT metabolized | Compound NOT metabolized | Compound NOT metabolized | Compound metabolized
CCN(CC)CCNC(=O)c1ccc(NC(C)=O)cc1 [ACECAINIDE] | Compound NOT metabolized | Compound NOT metabolized | Compound NOT metabolized | Compound metabolized | Compound NOT metabolized | Compound NOT metabolized | Compound NOT metabolized | Compound NOT metabolized | Compound NOT metabolized
Br.CN1CCC[C@@H]1Cc1c[nH]c2ccc(CCS(=O)(=O)c3ccccc3)cc12 [ELETRIPTAN HYDROBROMIDE] | Compound NOT metabolized | Compound NOT metabolized | Compound NOT metabolized | Compound metabolized | Compound NOT metabolized | Compound NOT metabolized | Compound NOT metabolized | Compound NOT metabolized | Compound metabolized
CCc1cccc2c3c([nH]c12)C(CC)(CC(=O)O)OCC3 (stereo unspecified) [ETODOLAC] | Compound NOT metabolized | Compound NOT metabolized | Compound NOT metabolized | Compound metabolized | Compound metabolized | Compound NOT metabolized | Compound NOT metabolized | Compound NOT metabolized | Compound metabolized
c1ccc2[nH]c(-c3cscn3)nc2c1 [THIABENDAZOLE] | Compound NOT metabolized | Compound NOT metabolized | Compound NOT metabolized | Compound NOT metabolized | Compound NOT metabolized | Compound NOT metabolized | Compound NOT metabolized | Compound NOT metabolized | Compound NOT metabolized
CCOc1cc(CC(=O)N[C@@H](CC(C)C)c2ccccc2N2CCCCC2)ccc1C(=O)O [REPAGLINIDE] | Compound NOT metabolized | Compound metabolized | Compound metabolized | Compound metabolized | Compound metabolized | Compound NOT metabolized | Compound NOT metabolized | Compound metabolized | Compound metabolized
CCCN(CCC)CCc1cccc2c1CC(=O)N2 [ROPINIROLE] | Compound NOT metabolized | Compound NOT metabolized | Compound NOT metabolized | Compound metabolized | Compound NOT metabolized | Compound NOT metabolized | Compound NOT metabolized | Compound NOT metabolized | Compound NOT metabolized

From ChEMBL document CHEMBL5724914, “Linking interpersonal differences in gut microbiota composition and drug biotransformation activity” (2024)
